This note sets out measurements from patent US20060135773A1, “Trisubstituted nitrogen modulators of tyrosine phosphatases” (priority 2004, published 2006).

Where only a bound is given, the exact number is not on record here.

This test deals with T1, PTP-1B (Homo sapiens, UniProt P18031).
T1 construct: PTP-1B (purified, 1 mg/mL) as a 1:250 dilution
T1 sequence (P18031 1-321 limits assumed): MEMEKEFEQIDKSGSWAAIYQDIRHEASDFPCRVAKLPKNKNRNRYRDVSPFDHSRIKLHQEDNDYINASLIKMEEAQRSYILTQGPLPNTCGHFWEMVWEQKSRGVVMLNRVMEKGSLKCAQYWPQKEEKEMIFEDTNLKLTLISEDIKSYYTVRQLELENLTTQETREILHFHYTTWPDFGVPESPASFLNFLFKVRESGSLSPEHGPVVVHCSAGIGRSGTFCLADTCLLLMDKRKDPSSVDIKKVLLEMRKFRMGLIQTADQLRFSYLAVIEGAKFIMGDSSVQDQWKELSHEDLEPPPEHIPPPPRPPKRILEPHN
Description: pNPP tyrosine phosphatase inhibition assay, PTP-1B. In kind it is biochemical. The note with it: pNPP assay, PTP-1B; read-out: Activity Class (IC50 ranges). As to the method:
The compounds provided herein are evaluated for biological activity as inhibitors of PTP-1B using, for example, a pNPP assay can be used to screen compounds for tyrosine phosphatase inhibitory activity as described in the Examples.
A 5× stock of pNPP (p-nitrophenol phosphate) substrate is prepared as 50 mM pNPP in assay buffer. Various tyrosine phosphatase solutions can be prepared as follows: • PTP-1B (purified, 1 mg/mL) as a 1:250 dilution (to a final concentration of 4:g/mL); • TC-PTP (NEB, 1000 units in 100:L) as a 1:50 dilution (to a final concentration of 2U/10:L (4:g/mL)); • CD45 (Calbiochem, 20:g, 400 units in 100:L) as a 1:50 dilution (to a final concentration of 0.8U/10:L (4:g/mL)); • LAR (NEB, 1000 units in 200:L) as a 1:75 dilution (to a final concentration of 0.7U/10:L (4:g/mL)); and • PTP-β (UBI, #14-350, 10,000 units, 40:g/571:L) as a 1:17.5 dilution (to a final concentration of 10U/10:L (4:g/mL));
The compound to be tested is prepared as 1:16.7 and 1:50 dilutions from stock in a total volume of […] DMSO to give final concentrations of 626 and 200:M. The reaction mixtures are prepared in a 96-well microtiter plate (on ice) as 55:L assay buffer, 5:L of the diluted compound (to a final concentration of 31.3 and 10:M), 20:L of the pNPP substrate solution (to a final concentration of 10 mM) and 20:L PTPase in assay buffer. The reactants are mixed well, the plate placed in a water bath at 30° C. and incubated for 10 minutes. The reaction is then terminated by adding 100:L of 2M K2CO3 per well, and the absorbance is measured at 405 nm by conventional means.
Unless otherwise indicated, this assay was used to determine activity for the selected compounds whose activity is provided in Table 1.
For `COc1ccc(OC)c(S(=O)(=O)N(Cc2ccc(C(=O)C(=O)O)cc2)Cc2ccc(S(C)(=O)=O)cc2)c1` [Compound 113, (4-{[(2,5-Dimethoxy-benzenesulfonyl)-(4-methanesulfonyl-benzyl)-amino]-methyl}-phenyl)-oxo-acetic acid], the IC50 (usually the concentration that gives 50% inhibition) is over 25000 nM.
Then `O=P(O)(O)C(F)(F)c1ccc(CN(Cc2ccc(C(F)(F)P(=O)(O)O)cc2)S(=O)(=O)c2ccccc2-c2ccccc2)cc1` [Compound 93, {[4-({(Biphenyl-2-sulfonyl)-[4-(difluoro-phosphono-methyl)-benzyl]-amino}-methyl)-phenyl]-difluoro-methyl}-phosphonic acid], with 250 to 499 nM; and “Methyl 3-{4-[({[4-(difluorophosphonomethyl)-3-chlorophenyl]methyl}[(2-methoxyphenyl)sulfonyl]amino)methyl]phenyl}-5-bromobenzoate [Compound 194]”, with 250 to 499 nM.
The same measure for `COc1ccccc1S(=O)(=O)N(Cc1ccc(C(F)(F)P(=O)(O)O)c(Cl)c1)Cc1ccccc1-c1cccc(O)c1` [Compound 184, [(2-Chloro-4-{[(3′-hydroxy-biphenyl-2-ylmethyl)-(2-methoxy-benzenesulfonyl)-amino]-methyl}-phenyl)-difluoro-methyl]-phosphonic acid]: 100 to 249 nM.
Then `COc1ccccc1S(=O)(=O)N(Cc1ccc(C(=O)C(=O)O)cc1)Cc1ccc(S(C)(=O)=O)cc1` [Compound 125, (4-{[(4-Methanesulfonyl-benzyl)-(2-methoxy-benzenesulfonyl)-amino]-methyl}-phenyl)-oxo-acetic acid], with over 25000 nM; and `COc1ccccc1S(=O)(=O)N(Cc1ccc(C#N)cc1)Cc1ccc(NS(=O)(=O)C(F)(F)F)cc1` [Compound 117, N-(4-(N-trifluoro-methanesulfonyl-amino]benzyl)-N-(4-cyanobenzyl)-(2-methoxy)benzenesulfonamide], with over 25000 nM; and `COc1ccccc1S(=O)(=O)N(Cc1ccc(N(CC(=O)O)C(=O)C(=O)O)cc1)Cc1ccc(S(C)(=O)=O)cc1` [Compound 136, N-Carboxymethyl-N-(4-{[(4-methanesulfonyl-benzyl)-(2-methoxy-benzenesulfonyl)-amino]-methyl}-phenyl)-oxalamic acid], with over 25000 nM.
Take `COc1ccccc1S(=O)(=O)N(Cc1ccc(C=CC(=O)O)cc1)Cc1ccc(C=CC(=O)O)cc1` [Compound 132, 3-(4-{[[4-(2-Carboxy-vinyl)-benzyl]-(2-methoxy-benzenesulfonyl)-amino]-methyl}-phenyl)-acrylic acid]: the IC50 is over 25000 nM.
The same measure for `COc1ccccc1S(=O)(=O)N(Cc1ccc(-c2ccc(O)c(C(=O)O)c2)cc1)Cc1ccc(C(F)(F)P(=O)(O)O)c(Cl)c1` [Compound 156, 4′-{[[3-Chloro-4-(difluoro-phosphono-methyl)-benzyl]-(2-methoxy-benzenesulfonyl)-amino]-methyl}-4-hydroxy-biphenyl-3-carboxylic acid]: under 99 nM.
Then “Methyl 5-{4-[({[4-(difluorophosphonomethyl)-3-chlorophenyl]methyl}[(2-methoxyphenyl)sulfonyl]amino)methyl]phenyl}-2-methoxybenzoate [Compound 205]”, with 100 to 249 nM; and `COC(=O)c1cccc(-c2ccc(CCN(Cc3ccc(C(F)(F)P(=O)(O)O)c(Cl)c3)S(=O)(=O)c3ccccc3OC)cc2)c1` [Compound 182, 4′-{2-[[3-Chloro-4-(difluoro-phosphono-methyl)-benzyl]-(2-methoxy-benzenesulfonyl)-amino]-ethyl}-biphenyl-3-carboxylic acid methyl ester], with 250 to 499 nM; and `COc1ccccc1S(=O)(=O)N(Cc1ccc(C(F)(F)P(=O)(O)O)c(Cl)c1)Cc1ccccc1OC(C)C` [Compound 211, {[4-(difluorophosphonomethyl)-3-chlorophenyl]methyl}[(2-methoxyphenyl)sulfonyl]{[2-(methylethoxy)phenyl]methyl}amine], with 250 to 499 nM.
As for `O=P(O)(O)C(F)(F)c1ccc(CN(Cc2ccc(C(F)(F)P(=O)(O)O)c(Br)c2)S(=O)(=O)c2ccc3ccccc3c2)cc1Br` [Compound 99, [(2-Bromo-4-{[[3-bromo-4-(difluoro-phosphono-methyl)-benzyl]-(naphthalene-2-sulfonyl)-amino]-methyl}-phenyl)-difluoro-methyl]-phosphonic acid], the IC50 was under 99 nM.
Then `COc1ccc(S(=O)(=O)N(Cc2ccc(C(F)(F)P(=O)(O)O)cc2)Cc2ccc(C(F)(F)P(=O)(O)O)cc2)cc1` [Compound 89, [(4-{[[4-(Difluoro-phosphono-methyl)-benzyl]-(4-methoxy-benzenesulfonyl)-amino]-methyl}-phenyl)-difluoro-methyl]-phosphonic acid], with 250 to 499 nM; and `O=P(O)(O)C(F)(F)c1ccc(CN(Cc2ccc(C(F)(F)P(=O)(O)O)cc2)S(=O)(=O)c2ccccc2C(F)(F)F)cc1` [Compound 90, [(4-{[[4-(Difluoro-phosphono-methyl)-benzyl]-(2-trifluoromethyl-benzenesulfonyl)-amino]-methyl}-phenyl)-difluoro-methyl]-phosphonic acid], with 250 to 499 nM; and `N#Cc1ccc(CN(Cc2ccc(C(F)(F)P(=O)(O)O)c(Br)c2)S(=O)(=O)c2ccccc2Cl)cc1` [Compound 103, [(2-Bromo-4-{[(4-cyano-benzyl)-(2-chlorobenzenesulfonyl)-amino]-methyl}-phenyl)-difluoro-methyl]-phosphonic acid], with 100 to 249 nM.
Then `CCCc1cc(-c2ccc(CN(Cc3ccc(C(F)(F)P(=O)(O)O)c(Cl)c3)S(=O)(=O)c3ccccc3OC)cc2)cc(C(=O)OC)c1O` [Compound 160, 4′-{[[3-Chloro-4-(difluoro-phosphono-methyl)-benzyl]-(2-methoxy-benzenesulfonyl)-amino]-methyl}-4-hydroxy-5-propyl-biphenyl-3-carboxylic acid methyl ester], with 250 to 499 nM.
On to `COc1ccccc1S(=O)(=O)N(Cc1ccc(-c2ccc(S(C)(=O)=O)cc2)c(C)c1)Cc1ccc(C(F)(F)P(=O)(O)O)c(Cl)c1` [Compound 151, [(2-Chloro-4-{[(4′-methanesulfonyl-2-methyl-biphenyl-4-ylmethyl)-(2-methoxy-benzenesulfonyl)-amino]-methyl}-phenyl)-difluoro-methyl]-phosphonic acid], for which the IC50 was 250 to 499 nM.
Then `COc1ccccc1S(=O)(=O)N(Cc1cccc(-c2ccc(S(C)(=O)=O)cc2)c1)Cc1ccc(C(F)(F)P(=O)(O)O)c(Cl)c1` [Compound 143, [(2-Chloro-4-{[(4′-methanesulfonyl-biphenyl-3-ylmethyl)-(2-methoxy-benzenesulfonyl)-amino]-methyl}-phenyl)-difluoro-methyl]-phosphonic acid], with 250 to 499 nM; and “3-[(4-{[(2-Methoxy-benzenesulfonyl)-naphthalen-1-ylmethyl-amino]-methyl}-phenyl)-oxalyl-amino]-butyric acid [Compound 225]”, with over 25000 nM; and “5-{4-[({[4-(difluorophosphonomethyl)phenyl]methyl}[(2-methoxyphenyl)sulfonyl]amino)methyl]phenyl}-2-hydroxybenzoic acid [Compound 210]”, with 250 to 499 nM.
